From patent publication US9079922B2, “2-oxo-oxazolidin-3,5-diyl antibiotic derivatives” (priority 2011, dated 2015)
In brackets after ≈: the same amount, converted by molar mass.

Experiments:
[1] = system: Acinetobacter baumanii T6474; experiment: Bacterial growth minimal inhibitory concentration (microdilution, cation-adjusted Mueller-Hinton Broth); format: cell-based; conditions: Acinetobacter baumannii, multiply-resistant strain, in particular quinolone resistant
Experimental: (§1) Bacterial Growth Minimal Inhibitory Concentrations:
(§2) Minimal inhibitory concentrations (MICs; mg/l) were determined in cation-adjusted Mueller-Hinton Broth by a microdilution method following the description given in “Methods for Dilution Antimicrobial Susceptibility Tests for Bacteria that Grow Aerobically”, Approved standard, 7th ed., Clinical and Laboratory Standards Institute (CLSI) Document M7-A7, Wayne, Pa., USA, 2006.
(§3) All Example compounds were tested against several Gram positive and Gram negative bacteria. Staphylococcus aureus A798 and Acinetobacter baumanii T6474 are multiply-resistant strains, in particular quinolone resistant.

[2] = system: Staphylococcus aureus A798; experiment: as above; format: cell-based; conditions: multiply-resistant strain, in particular quinolone resistant, read-out: MIC for S. aureus A798
Experimental: as §1, §2, §3

MIC [1] [µg/mL] | MIC [2] [µg/mL] | Structure (SMILES)
0.063 (≈ 0.109 µM) | ≤ 0.016 | O=C1COc2ccc(N3C[C@H](CN4CCN(c5nc6c(cc5F)c(=O)c(C(=O)O)cn6C5CC5)CC4)OC3=O)nc2N1 [Example 19, 1-cyclopropyl-6-fluoro-4-oxo-7-{4-[(S)-2-oxo-3-(3-oxo-3,4-dihydro-2H-pyrido[3,2-b][1,4]oxazin-6-yl)-oxazolidin-5-ylmethyl]-piperazin-1-yl}-1,4-dihydro-[1,8]naphthyridine-3-carboxylic acid]
0.06 (≈ 0.112 µM) | 0.063 (≈ 0.118 µM) | CCn1cc(C(=O)O)c(=O)c2ccc(N3CC(NC[C@@H]4CN(c5ccc6c(n5)NC(=O)CO6)C(=O)O4)C3)nc21 [Example 9, 1-ethyl-4-oxo-7-(3-{[(R)-2-oxo-3-(3-oxo-3,4-dihydro-2H-pyrido[3,2-b][1,4]oxazin-6-yl)-oxazolidin-5-ylmethyl]-amino}-azetidin-1-yl)-1,4-dihydro-[1,8]naphthyridine-3-carboxylic acid]
1 (≈ 1.62 µM) | ≤ 0.016 | O=C1COc2ccc(N3C[C@@H](CNC4CN(c5nc6c(cc5F)c(=O)c(C(=O)O)cn6Cc5ccccc5)C4)OC3=O)nc2N1 [Example 13, 1-benzyl-6-fluoro-4-oxo-7-(3-{[(R)-2-oxo-3-(3-oxo-3,4-dihydro-2H-pyrido[3,2-b][1,4]oxazin-6-yl)-oxazolidin-5-ylmethyl]-amino}-azetidin-1-yl)-1,4-dihydro-[1,8]naphthyridine-3-carboxylic acid]
0.063 (≈ 0.106 µM) | ≤ 0.016 | O=C1COc2ccc(N3C[C@H](CNC4CN(c5nc6c(cc5F)c(=O)c5c(O)nsc5n6C5CC5)C4)OC3=O)nc2N1 [Example 24, 9-cyclopropyl-6-fluoro-3-hydroxy-7-(3-{[(S)-2-oxo-3-(3-oxo-3,4-dihydro-2H-pyrido[3,2-b][1,4]oxazin-6-yl)-oxazolidin-5-ylmethyl]-amino}-azetidin-1-yl)-9H-1-thia-2,8,9-triaza-cyclopenta[b]naphthalen-4-one]
0.031 (≈ 0.0548 µM) | ≤ 0.016 | O=C1COc2ccc(N3C[C@@H](CNC4CN(c5nc6c(cc5F)c(=O)c(C(=O)O)cn6C5CC5)C4)OC3=O)nc2N1 [Example 6, 1-cyclopropyl-6-fluoro-4-oxo-7-(3-{[(R)-2-oxo-3-(3-oxo-3,4-dihydro-2H-pyrido[3,2-b][1,4]oxazin-6-yl)-oxazolidin-5-ylmethyl]-amino}-azetidin-1-yl)-1,4-dihydro-[1,8]naphthyridine-3-carboxylic acid]
0.031 (≈ 0.0522 µM) | 0.125 (≈ 0.211 µM) | O=C1COc2ccc(N3C[C@H](CNC[C@@H]4CCN(c5nc6c(cc5F)c(=O)c(C(=O)O)cn6C5CC5)C4)OC3=O)nc2N1 [Example 22, 1-cyclopropyl-6-fluoro-4-oxo-7-[(S)-3-({[(S)-2-oxo-3-(3-oxo-3,4-dihydro-2H-pyrido[3,2-b][1,4]oxazin-6-yl)-oxazolidin-5-ylmethyl]-amino}-methyl)-pyrrolidin-1-yl]-1,4-dihydro-[1,8]naphthyridine-3-carboxylic acid]
0.25 (≈ 0.423 µM) | 0.063 (≈ 0.106 µM) | COc1c(N2CC(NC[C@@H]3CN(c4ccc5c(c4)NC(=O)CS5)C(=O)O3)C2)ccc2c(=O)c(C(=O)O)cn(C3CC3)c12 [Example 7, 1-cyclopropyl-8-methoxy-4-oxo-7-(3-{[(R)-2-oxo-3-(3-oxo-3,4-dihydro-2H-benzo[1,4]thiazin-6-yl)-oxazolidin-5-ylmethyl]-amino}-azetidin-1-yl)-1,4-dihydro-quinoline-3-carboxylic acid]
4 (≈ 7.02 µM) | 0.25 (≈ 0.439 µM) | O=C1COc2ccc(N3C[C@@H](CNC4CN(c5nc6c(cc5F)c(=O)c(C(=O)O)cn6CCO)C4)OC3=O)nc2N1 [Example 15, 6-fluoro-1-(2-hydroxy-ethyl)-4-oxo-7-(3-{[(R)-2-oxo-3-(3-oxo-3,4-dihydro-2H-pyrido[3,2-b][1,4]oxazin-6-yl)-oxazolidin-5-ylmethyl]-amino}-azetidin-1-yl)-1,4-dihydro-[1,8]naphthyridine-3-carboxylic acid]
0.06 (≈ 0.11 µM) | 0.031 (≈ 0.0566 µM) | O=C1COc2ccc(N3C[C@@H](CNC4CN(c5ccc6c(=O)c(C(=O)O)cn(C7CC7)c6n5)C4)OC3=O)nc2N1 [Example 14, 1-cyclopropyl-4-oxo-7-(3-{[(R)-2-oxo-3-(3-oxo-3,4-dihydro-2H-pyrido[3,2-b][1,4]oxazin-6-yl)-oxazolidin-5-ylmethyl]-amino}-azetidin-1-yl)-1,4-dihydro-[1,8]naphthyridine-3-carboxylic acid]
0.25 (≈ 0.431 µM) | 0.031 (≈ 0.0535 µM) | O=C1COc2ccc(N3C[C@@H](CN4CCN(c5nc6c(cc5F)c(=O)c(C(=O)O)cn6C5CC5)CC4)OC3=O)nc2N1 [Example 18, 1-cyclopropyl-6-fluoro-4-oxo-7-{4-[(R)-2-oxo-3-(3-oxo-3,4-dihydro-2H-pyrido[3,2-b][1,4]oxazin-6-yl)-oxazolidin-5-ylmethyl]-piperazin-1-yl}-1,4-dihydro-[1,8]naphthyridine-3-carboxylic acid]
0.063 (≈ 0.106 µM) | ≤ 0.016 | O=C1CSc2ccc(N3C[C@@H](CN4CCN(c5cc6c(cc5F)c(=O)c(C(=O)O)cn6C5CC5)CC4)OC3=O)nc2N1 [Example 3, 1-cyclopropyl-6-fluoro-4-oxo-7-{4-[(R)-2-oxo-3-(3-oxo-3,4-dihydro-2H-pyrido[3,2-b][1,4]thiazin-6-yl)-oxazolidin-5-ylmethyl]-piperazin-1-yl}-1,4-dihydro-quinoline-3-carboxylic acid]
≤ 0.016 | ≤ 0.016 | O=C1COc2ccc(N3C[C@H](CNC4CCN(c5nc6c(cc5F)c(=O)c(C(=O)O)cn6C5CC5)CC4)OC3=O)nc2N1 [Example 20, 1-cyclopropyl-6-fluoro-4-oxo-7-(4-{[(S)-2-oxo-3-(3-oxo-3,4-dihydro-2H-pyrido[3,2-b][1,4]oxazin-6-yl)-oxazolidin-5-ylmethyl]-amino}-piperidin-1-yl)-1,4-dihydro-[1,8]naphthyridine-3-carboxylic acid]
0.125 (≈ 0.21 µM) | ≤ 0.016 | O=C1CSc2ccc(N3C[C@H](CN4CCN(c5nc6c(cc5F)c(=O)c(C(=O)O)cn6C5CC5)CC4)OC3=O)cc2N1 [Example 16, 1-cyclopropyl-6-fluoro-4-oxo-7-{4-[(S)-2-oxo-3-(3-oxo-3,4-dihydro-2H-benzo[1,4]thiazin-6-yl)-oxazolidin-5-ylmethyl]-piperazin-1-yl}-1,4-dihydro-[1,8]naphthyridine-3-carboxylic acid]
≤ 0.016 | ≤ 0.016 | O=C1COc2ccc(N3C[C@H](CNC4CCN(c5nc6c(cc5F)c(=O)c5c(O)nsc5n6C5CC5)CC4)OC3=O)nc2N1 [Example 23, 9-cyclopropyl-6-fluoro-3-hydroxy-7-(4-{[(S)-2-oxo-3-(3-oxo-3,4-dihydro-2H-pyrido[3,2-b][1,4]oxazin-6-yl)-oxazolidin-5-ylmethyl]-amino}-piperidin-1-yl)-9H-1-thia-2,8,9-triaza-cyclopenta[b]naphthalen-4-one]
0.25 (≈ 0.434 µM) | 0.063 (≈ 0.109 µM) | COc1c(N2CC(NC[C@@H]3CN(c4ccc5c(n4)NC(=O)CO5)C(=O)O3)C2)ccc2c(=O)c(C(=O)O)cn(C3CC3)c12 [Example 8, 1-cyclopropyl-8-methoxy-4-oxo-7-(3-{[(R)-2-oxo-3-(3-oxo-3,4-dihydro-2H-pyrido[3,2-b][1,4]oxazin-6-yl)-oxazolidin-5-ylmethyl]-amino}-azetidin-1-yl)-1,4-dihydro-quinoline-3-carboxylic acid]
0.063 (≈ 0.121 µM) | 0.063 (≈ 0.121 µM) | Cn1cc(C(=O)O)c(=O)c2ccc(N3CC(NC[C@@H]4CN(c5ccc6c(n5)NC(=O)CO6)C(=O)O4)C3)nc21 [Example 11, 1-methyl-4-oxo-7-(3-{[(R)-2-oxo-3-(3-oxo-3,4-dihydro-2H-pyrido[3,2-b][1,4]oxazin-6-yl)-oxazolidin-5-ylmethyl]-amino}-azetidin-1-yl)-1,4-dihydro-[1,8]naphthyridine-3-carboxylic acid]
0.25 (≈ 0.444 µM) | 0.063 (≈ 0.112 µM) | O=C1CSc2ccc(N3C[C@@H](CNC4CN(c5ccc6c(=O)c(C(=O)O)cn(C7CC7)c6n5)C4)OC3=O)cc2N1 [Example 10, 1-cyclopropyl-4-oxo-7-(3-{[(R)-2-oxo-3-(3-oxo-3,4-dihydro-2H-benzo[1,4]thiazin-6-yl)-oxazolidin-5-ylmethyl]-amino}-azetidin-1-yl)-1,4-dihydro-[1,8]naphthyridine-3-carboxylic acid]
0.125 (≈ 0.205 µM) | ≤ 0.016 | O=C1COc2ccc(N3C[C@H](CN4CCN(c5nc6c(cc5F)c(=O)c5c(O)nsc5n6C5CC5)CC4)OC3=O)nc2N1 [Example 25, 9-cyclopropyl-6-fluoro-3-hydroxy-7-{4-[(S)-2-oxo-3-(3-oxo-3,4-dihydro-2H-pyrido[3,2-b][1,4]oxazin-6-yl)-oxazolidin-5-ylmethyl]-piperazin-1-yl}-9H-1-thia-2,8,9-triaza-cyclopenta[b]naphthalen-4-one]
0.125 (≈ 0.21 µM) | ≤ 0.016 | O=C1CSc2ccc(N3C[C@@H](CN4CCN(c5nc6c(cc5F)c(=O)c(C(=O)O)cn6C5CC5)CC4)OC3=O)cc2N1 [Example 4, 1-cyclopropyl-6-fluoro-4-oxo-7-{4-[(R)-2-oxo-3-(3-oxo-3,4-dihydro-2H-benzo[1,4]thiazin-6-yl)-oxazolidin-5-ylmethyl]-piperazin-1-yl}-1,4-dihydro-[1,8]naphthyridine-3-carboxylic acid]
0.25 | 0.125 | O=C1COc2ccc(N3C[C@H](CNC4CCN(c5nc6c(cc5F)c(=O)c(C(=O)O)cn6C5CC5)C4)OC3=O)nc2N1 (mixture of isomers) [Example 21, 1-cyclopropyl-6-fluoro-4-oxo-7-((RS)-3-{[(S)-2-oxo-3-(3-oxo-3,4-dihydro-2H-pyrido[3,2-b][1,4]oxazin-6-yl)-oxazolidin-5-ylmethyl]-amino}-pyrrolidin-1-yl)-1,4-dihydro-[1,8]naphthyridine-3-carboxylic acid]
